The test relates to RSV A2 virus strain. In words: Cotton rat RSV A2 challenge protection, lung nucleic acid load by RT-qPCR. The class given is in vivo. Particulars: cotton rats; for Nucleic acid load RT-qPCR detection results Log10 mean (copy number/gram of lung tissue): tracheal nebulization 1 mg/kg QD for 5 days, lung collected 2 h after final administration on Day 4; for effect on viral titer in lung tissue (in words): tracheal nebulization once daily for 5 days. The text has this:
Female cotton rats were from Shanghai Yishang Biotechnology Co., Ltd. The RSV A2 virus strain was from the ATCC, with a catalog number VR-1540. RT-qPCR primer+probe primer were supplied by Qingke Biotechnology Co., Ltd, with batch number TSP20241227-025-00187. The RT-qPCR standard was provided by Vazyme, with batch number 20241008.
Female cotton rats (6-8 weeks old) were grouped based on body weight (n=5). All animals were intranasally challenged with RSV on Day 0 at a challenge dosage of […] pfu (50 μL) per animal. Administration began 1 h after Day 0 challenge; the polypeptide sample, positive control, and solvent control were administered via tracheal nebulization once daily for 5 consecutive days. Lung tissue was collected from all animals 2 h after the final administration on Day 4. Left lung tissue (including partial trachea) was rapidly frozen in a virus protection solution with a 10-fold volume and stored below −70° C.; and the viral titer was detected with RT-qPCR.
First, sample homogenization and lung tissue RNA extraction were performed, and the supernatant was taken from the tissue sample that was homogenized using a tissue homogenizer (maintaining a low-temperature environment). The approximately 100 μL of the homogenate supernatant was taken, and total tissue RNA was extracted by using a VeZol reagent-chloroform-water phase-magnetic bead method, and dissolved in RNase-free water. The RT-qPCR reaction system was prepared as follows: a one-step RT-qPCR reaction system was prepared by using an RNA template, a probe, a primer pair, an RT-qPCR buffer, and the RNase-free water; each sample was tested in duplicated wells, with each well containing 20 μL of the one-step RT-qPCR reaction system; a quantitative standard curve well (RSV A2 N gene full-length plasmid), a positive quality control well, and a negative quality control well were arranged at the same time. Then, amplification programs were set according to reverse transcription, pre-denaturation, and cyclic amplification, and amplification data was collected by using a real-time fluorescence quantification PCR instrument, and a mean CT value for duplicated wells was calculated. The CT value from the test results for each sample was substituted into a quantitative standard curve to calculate a copy number. A calculation formula for RSV viral load (copy number/gram of lung tissue) was: sample viral load (copy number/gram of lung tissue)=copy number/relative tissue input (g).
One hour after RSV A2 challenge in cotton rats, compounds 13, 14, 17, 19, 20, 21, 26, 27, 28, and 40 were administered via tracheal nebulization once daily for 5 consecutive days; and 2 h after the final administration, lung tissue was collected from all groups for viral titer detection, and results were shown in Table 4.
(In qPCR the cycle at which signal appears reflects the starting amount.)

The results in this text go back to patent publication US20260250325A1, “Antiviral Polypeptide Membrane Fusion Inhibitor, and Preparation Method and Application Thereof” (priority 2025, published 2026).

Where a SMILES comes first, the peptide text is derived from it. The star is where a group is joined. Succinyl(4-O-cholesteryl) = CC(C)CCC[C@@H](C)[C@H]1CC[C@H]2[C@@H]3CC=C4C[C@@H](OC(=O)CCC(=O)*)CC[C@]4(C)[C@H]3CC[C@]12C

With `CC[C@H](C)[C@H](NC(=O)[C@H](CCCCN)NC(=O)[C@H](CCCCN)NC(=O)[C@H](CC(C)C)NC(=O)[C@H](CO)NC(=O)[C@H](CCC(=O)O)NC(=O)[C@H](CCC(=O)O)NC(=O)[C@@H](NC(=O)[C@H](CCCCN)NC(=O)[C@H](CCCCN)NC(=O)[C@H](CC(N)=O)NC(=O)[C@@H](NC(=O)[C@H](CCC(=O)O)NC(=O)[C@H](CCC(=O)O)NC(=O)[C@@H](NC(=O)[C@H](CCCCN)NC(=O)[C@H](CCCCN)NC(=O)[C@H](CC(=O)O)NC(=O)[C@H](Cc1ccccc1)NC(=O)[C@H](CCC(=O)O)NC(=O)[C@H](CC(=O)O)NC(=O)[C@H](CO)NC(C)=O)[C@@H](C)CC)C(C)C)[C@@H](C)CC)C(=O)N[C@@H](CCC(=O)O)C(=O)N[C@@H](CCC(=O)O)C(=O)N[C@@H](CO)C(=O)N[C@@H](CC(=O)O)C(=O)N[C@@H](CCCCN)C(=O)N[C@@H](CCCCN)C(=O)N[C@@H](CC(C)C)C(=O)NCC(=O)N[C@@H](CO)C(=O)NCC(=O)N[C@@H](CO)C(=O)NCC(=O)N[C@@H](CCCCNC(=O)CCC(=O)O[C@H]1CC[C@@]2(C)C(=CC[C@H]3[C@@H]4CC[C@H]([C@H](C)CCCC(C)C)[C@@]4(C)CC[C@@H]32)C1)C(N)=O` [Compound 20] (Ac-SDEFDKKIEEVNKKIEESLKKIEESDKKLGSGSGK(Succinyl(4-O-cholesteryl))-NH2), the “Nucleic acid load RT-qPCR detection results Log10 mean (copy number/gram of lung tissue)” value is reported as 8.55 Log10 copy number/gram of lung and the “effect on viral titer in lung tissue (in words)” value was “significantly reduce the viral titer in lung tissue”.
For “Ac-FDEEISQVNEKINQSLAFIRKSDELLHNVNAGKSTTEAAAKK(Succinyl(4-O-cholesteryl))-NH2 [Compound 26]”, in that order: 7.78 Log10 copy number/gram of lung and “significantly reduce the viral titer in lung tissue”.
For `CC[C@H](C)[C@H](NC(=O)[C@H](CCCCN)NC(=O)[C@H](CCCCN)NC(=O)[C@H](CC(C)C)NC(=O)[C@H](CO)NC(=O)[C@H](CCC(=O)O)NC(=O)[C@H](CCC(=O)O)NC(=O)[C@@H](NC(=O)[C@H](CCCCN)NC(=O)[C@H](CCCCN)NC(=O)[C@H](CC(N)=O)NC(=O)[C@@H](NC(=O)[C@H](CCC(=O)O)NC(=O)[C@H](CCC(=O)O)NC(=O)[C@@H](NC(=O)[C@H](CCCCN)NC(=O)[C@H](CCCCN)NC(=O)[C@H](CC(=O)O)NC(=O)[C@H](Cc1ccccc1)NC(=O)[C@H](CCC(=O)O)NC(=O)[C@H](CC(=O)O)NC(=O)[C@H](Cc1c[nH]c2ccccc12)NC(C)=O)[C@@H](C)CC)C(C)C)[C@@H](C)CC)C(=O)N[C@@H](CCC(=O)O)C(=O)N[C@@H](CCC(=O)O)C(=O)N[C@@H](CO)C(=O)N[C@@H](CC(=O)O)C(=O)N[C@@H](CCCCN)C(=O)N[C@@H](CCCCN)C(=O)N[C@@H](CC(C)C)C(=O)N[C@@H](CCC(=O)O)C(=O)N[C@@H](C)C(=O)N[C@@H](C)C(=O)N[C@@H](C)C(=O)N[C@@H](CCCCN)C(=O)N[C@@H](CCCCNC(=O)CCC(=O)O[C@H]1CC[C@@]2(C)C(=CC[C@H]3[C@@H]4CC[C@H]([C@H](C)CCCC(C)C)[C@@]4(C)CC[C@@H]32)C1)C(N)=O` [Compound 13] (Ac-WDEFDKKIEEVNKKIEESLKKIEESDKKLEAAAKK(Succinyl(4-O-cholesteryl))-NH2), in that order: 7.82 Log10 copy number/gram of lung and “significantly reduce the viral titer in lung tissue”.
For `CC[C@H](C)[C@H](NC(=O)[C@H](CCCCN)NC(=O)[C@H](CCCCN)NC(=O)[C@H](CC(C)C)NC(=O)[C@H](CO)NC(=O)[C@H](CCC(=O)O)NC(=O)[C@H](CCC(=O)O)NC(=O)[C@@H](NC(=O)[C@H](CCCCN)NC(=O)[C@H](CCCCN)NC(=O)[C@H](CC(N)=O)NC(=O)[C@@H](NC(=O)[C@H](CCC(=O)O)NC(=O)[C@H](CCC(=O)O)NC(=O)[C@@H](NC(=O)[C@H](CCCCN)NC(=O)[C@H](CCCCN)NC(=O)[C@H](CC(=O)O)NC(=O)[C@H](Cc1ccccc1)NC(=O)[C@H](CCC(=O)O)NC(=O)[C@H](CC(=O)O)NC(=O)[C@H](Cc1c[nH]c2ccccc12)NC(C)=O)[C@@H](C)CC)C(C)C)[C@@H](C)CC)C(=O)N[C@@H](CCC(=O)O)C(=O)N[C@@H](CCC(=O)O)C(=O)N[C@@H](CO)C(=O)N[C@@H](CC(=O)O)C(=O)N[C@@H](CCCCN)C(=O)N[C@@H](CCCCN)C(=O)N[C@@H](CC(C)C)C(=O)N[C@@H](CCC(=O)O)C(=O)N[C@@H](CCC(=O)O)C(=O)N[C@H](C(=O)N[C@@H](CC(N)=O)C(=O)N[C@@H](C)C(=O)N[C@@H](CCC(=O)O)C(=O)N[C@@H](C)C(=O)N[C@@H](C)C(=O)N[C@@H](C)C(=O)N[C@@H](CCCCN)C(=O)N[C@@H](CCCCNC(=O)CCC(=O)O[C@H]1CC[C@@]2(C)C(=CC[C@H]3[C@@H]4CC[C@H]([C@H](C)CCCC(C)C)[C@@]4(C)CC[C@@H]32)C1)C(N)=O)C(C)C` [Compound 40] (Ac-WDEFDKKIEEVNKKIEESLKKIEESDKKLEEVNAEAAAKK(Succinyl(4-O-cholesteryl))-NH2), in that order: 7.71 Log10 copy number/gram of lung and “significantly reduce the viral titer in lung tissue”.
With “Ac-WDEFDASISQVNEKINQSLEEIRKSDELLHNVNAGLGSGSGK(Succinyl(4-O-cholesteryl))-NH2 [Compound 27]”, the “Nucleic acid load RT-qPCR detection results Log10 mean (copy number/gram of lung tissue)” value was 8.86 Log10 copy number/gram of lung and the “effect on viral titer in lung tissue (in words)” value was “significantly reduce the viral titer in lung tissue”.
The like results for `CC[C@H](C)[C@H](NC(=O)[C@H](CO)NC(=O)[C@H](C)NC(=O)[C@H](CC(=O)O)NC(=O)[C@H](Cc1ccccc1)NC(=O)[C@H](CCC(=O)O)NC(=O)[C@H](CC(=O)O)NC(C)=O)C(=O)N[C@@H](CO)C(=O)N[C@@H](CCC(N)=O)C(=O)N[C@H](C(=O)N[C@@H](CC(N)=O)C(=O)N[C@@H](CCC(=O)O)C(=O)N[C@@H](CCCCN)C(=O)N[C@H](C(=O)N[C@@H](CC(N)=O)C(=O)N[C@@H](CCC(N)=O)C(=O)N[C@@H](CO)C(=O)N[C@@H](CC(C)C)C(=O)N[C@@H](CCC(=O)O)C(=O)N[C@@H](CCC(=O)O)C(=O)N[C@H](C(=O)N[C@@H](CCCNC(=N)N)C(=O)N[C@@H](CCCCN)C(=O)N[C@@H](CO)C(=O)N[C@@H](CC(=O)O)C(=O)N[C@@H](CCC(=O)O)C(=O)N[C@@H](CC(C)C)C(=O)N[C@@H](CC(C)C)C(=O)N[C@@H](Cc1c[nH]cn1)C(=O)N[C@@H](CC(N)=O)C(=O)N[C@@H](CCC(=O)O)C(=O)N[C@@H](C)C(=O)N[C@@H](C)C(=O)N[C@@H](C)C(=O)N[C@@H](CCCCN)C(=O)N[C@@H](CCCCNC(=O)CCC(=O)O[C@H]1CC[C@@]2(C)C(=CC[C@H]3[C@@H]4CC[C@H]([C@H](C)CCCC(C)C)[C@@]4(C)CC[C@@H]32)C1)C(N)=O)[C@@H](C)CC)[C@@H](C)CC)C(C)C` [Compound 28] (Ac-DEFDASISQVNEKINQSLEEIRKSDELLHNEAAAKK(Succinyl(4-O-cholesteryl))-NH2) were, in that order, 7.76 Log10 copy number/gram of lung and “significantly reduce the viral titer in lung tissue”.
